Reference: patent publication US20120295838A1, “Selective poly-substituted glycine antibiotics and related compositions” (priority 2008, published 2012)
In brackets after ≈: the same amount, converted by molar mass. Blank lines part the entries; values can stand above or below the compound they belong to. Numbered stars: 1 amine (or outer) side, 2 acyl side, 3 side chain; on linkers, the order of the positions; unused ones are H or OH. Square brackets hold non-standard residues; d marks the D form. Peptide text beside a SMILES is read from it. X2 = CCC[C@H](C)N(CC(=O)[*:2])[*:1]; Nspe = C[C@H](NCC(=O)O)c1ccccc1; Nphe = O=C(O)CNCc1ccccc1; Nlys = NCCCCNCC(=O)O

Tests used:
[1] = tested on: A549 lung epithelial cells; test: MTS assay, A549 cells
Protocol: The biocompatibility of selected oligomers with A549 lung epithelial cells was evaluated using the MTS [3-(4,5-dimethylthiazol-2-yl)-5-(3-carboxymethoxyphenyl)-2-(4-sulfophenyl)-2H-tetrazolium] assay.
MTS Assays. A549 carcinoma-derived lung epithelial cells (ATTC CCL-185) were cultured in Ham's F12K media (ATTC, Manassas, Va.). A peptoid solution plate (100 μL/well) was prepared by serial dilution of aqueous peptoid stocks in media. Peptoid solutions were transferred onto a 96-well plate of day-old cell monolayers containing 100 μL/well media with 5000 cells/well. MTS reagent (Promega Corporation, Madison, Wis.) (40 μL/well) was added to each well and the plate was incubated at 37° C. for 3 h, after which absorbance at 490 nm was determined. Percent inhibition was determined as [1−(A−Atest blank)/(Acontrol−Ablank)]×100, where A is the absorbance of the test well and Acontrol the average absorbance of wells with cells exposed to media and MTS (no peptoid). Atest blank (media, MTS, and peptoid) and Ablank (media and MTS) were background absorbances measured in the absence of cells. The average of six replicates are reported, and error bars show one standard deviation.

[2] = tested on: E. coli JM109; format: cell-based; settings: Table 1; SR = (HD10)/(E. coli MIC)
Source text: An initial set of 15 ampetoid analogs was synthesized to determine whether peptoids are affected by structural and sequence modifications in a manner consistent with AMP activities. The designs for ampetoids in this library were derived from two antibacterial and selective amphipathic dodecamers, 1 and 2. Peptoid 1 [H-(Nlys-Nspe-Nspe)4-NH2] is composed of 2/3 Nspe, the peptoid analog of phenylalanine, and 1/3 Mys, the peptoid analog of lysine (see FIG. 1 for the structures of representative peptoid monomers and corresponding N-substituents). Peptoid 2 [H-(Mys-Nssb-Nspe)4-NH2] contains 1/3 isoleucine-like Nssb monomers in place of Nspe. The variant sequences were designed to effect changes in chirality, length, hydrophobicity, charge, and amphipathicity. All of these compounds were tested for antibacterial activity against representative BSL1 Gram-negative (E. coli JM109) and Gram-positive (B. subtilis BR151) bacterial strains. As an initial measure of selectivity, the lytic activity of the peptoids was determined against human erythrocytes. Table 1 summarizes the sequences synthesized, the solvent composition at RP-HPLC elution as a relative measure of molecular hydrophobicity, and antibacterial and hemolytic activities.
Antibacterial assays. MICs were determined according to CLSI M7-A6 protocols in a 96-well microtiter plate. […]

[3] = tested on: human erythrocytes; test: Hemolysis assay; format: cell-based
Method in brief: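 Heparinised fresh human erythrocytes, 20 vol % in PBS pH 7.4, mixed 1:1 with 1:2 serially diluted peptoid and incubated 1 h at 37 °C. PBS alone as 0% and 0.2 vol % Triton X-100 as 100% hemolysis; after 1200 g spin for 15 min, supernatant A350 read.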

[4] = tested on: E. coli ATCC 35218; format: cell-based; settings: ATCC 35218
[5] = MTS assay, NIH 3T3 cells; format: cell-based, mouse; settings: mouse, NIH 3T3 fibroblast cells
Method in brief: (§1)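 NIH/3T3 cells seeded at 5,000 per well, grown a day in DMEM with 10% FBS, then washed and exposed to serially diluted peptoid in HBSS together with MTS reagent. Absorbance at 490 nm read after 3 hours at 37 °C as a measure of metabolic activity; mean of six replicates.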

[6] = tested on: NIH 3T3 mouse fibroblast cells; test: MTS assay, NIH 3T3 cells; format: cell-based
Method in brief: as §1

[7] = tested on: Proteus vulgaris ATCC 49132; format: cell-based; settings: ATCC 49132
Protocol: (§2) Antibacterial assays. MICs were determined according to CLSI M7-A6 protocols in a 96-well microtiter plate. In test wells, 50 uL bacterial inoculum (5×10^5 CFU/ml) in Mueller-Hinton broth (MHB) was added to 50 μL peptoid solution in MHB (prepared by 1:2 serial dilutions). Positive controls contained 50 μL inoculum and 50 μL MHB without peptoid. […] MIC values reported were reproducible between three independent experimental replicates, each consisting of two parallel trials. Broad-spectrum antimicrobial susceptibility testing was performed against BSL2 pathogens by Nova Biologicals, Inc. (Conroe, Tex.).
(§3) Broad-spectrum antibacterial assays. MICs of compounds were determined by microdilution procedure in Mueller-Hinton broth (MHB) in accordance with CLSI M7-A6 protocols in a manner similar to that described for the screen antibacterial assays. Inoculated microtiter plates were incubated at 35° C. for 24 hours prior to the result being recorded. Four ATCC strains that were used as standards are recommended by CLSI: Pseudomonas aeruginosa ATCC 27853, Escherichia coli ATCC 25922, Staphylococcus aureus ATCC 29213 and Enterococcus faecalis ATCC 29212. Other strains from the ATCC collection include Proteus vulgaris ATCC 49132, Proteus mirabilis ATCC 35659, Klebsiella pneumoniae ATCC 33495, Enterobacter aerogenes ATCC 35029 and Serratia marcescens ATCC 13880. S. aureus NRS100 (COL) is a well characterized methicillian-resistant S. aureus (MRSA) strain. The strains S. aureus VAN1 and S. aureus VAN2, vancomycin-resistant MRSA strains that were isolated in Michigan and Pennsylvania, were the first vancomycin-resistant strains clinically isolated. S. aureus NRS 119 and S. aureus NRS 120 are linezolid-resistant isolates from the Network on Antimicrobial Resistance in S. aureus (NARSA) collection. E. faecalis 99 and E. faecium 106 are vancomycin-resistant enterococcal strains.

[8] = tested on: Staphylococcus aureus VAN1; format: cell-based; settings: VAN1
Protocol: as §2, §3

[9] = tested on: Escherichia coli ATCC 25922; format: cell-based; settings: ATCC 25922
Protocol: as §2, §3

[10] = tested on: Staphylococcus aureus VAN2; format: cell-based; settings: VAN2
Protocol: as §2, §3

[11] = tested on: Staphylococcus aureus NRS100 (COL); format: cell-based; settings: NRS100 (COL)
Protocol: as §2, §3

[12] = tested on: Staphylococcus aureus NRS120; format: cell-based; settings: NRS120
Protocol: as §2, §3

[13] = tested on: Enterobacter aerogenes ATCC 35029; format: cell-based; settings: ATCC 35029
Protocol: as §2, §3

[14] = tested on: Enterococcus faecalis 99; format: cell-based; settings: 99
Protocol: as §2, §3

[15] = tested on: Enterococcus faecium 106; format: cell-based; settings: 106
Protocol: as §2, §3

[16] = tested on: Enterococcus faecalis ATCC 29212; format: cell-based; settings: ATCC 29212
Protocol: as §2, §3

[17] = tested on: Klebsiella pneumoniae ATCC 33495; format: cell-based; settings: ATCC 33495
Protocol: as §2, §3

[18] = tested on: Staphylococcus aureus ATCC 29213; format: cell-based; settings: ATCC 29213
Protocol: as §2, §3

[19] = tested on: Pseudomonas aeruginosa ATCC 27853; format: cell-based; settings: ATCC 27853
Protocol: as §2, §3

[20] = tested on: Staphylococcus aureus NRS119; format: cell-based; settings: NRS119
Protocol: as §2, §3

[21] = tested on: B. subtilis ATCC 6633; format: cell-based; settings: ATCC 6633
Method in brief: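 Broth microdilution MICs per CLSI M7-A6 in cation-adjusted Mueller-Hinton broth, using 1×10^6 CFU/mL inoculum added 1:1 to twofold serial peptoid dilutions. Values reproducible across three independent experiments, each with two parallel trials.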

Structure (SMILES): C[C@@H](c1ccccc1)N(CC(N)=O)C(=O)CN(C(=O)CN(CCCCN)C(=O)CN(C(=O)CN(C(=O)CN(CCCCN)C(=O)CN(C(=O)CN(C(=O)CN(CCCCN)C(=O)CN(C(=O)CN(C(=O)CN(CCCCN)C(=O)CN(C(=O)CN(C(=O)CNCCCCN)[C@@H](C)c1ccccc1)[C@@H](C)c1ccccc1)[C@@H](C)c1ccccc1)[C@@H](C)c1ccccc1)[C@@H](C)c1ccccc1)[C@@H](C)c1ccccc1)[C@@H](C)c1ccccc1)[C@@H](C)c1ccccc1)[C@@H](C)c1ccccc1 [115 mer, H-(Nlys-Nspe-Nspe)5-NH2]
cytotoxicity (in words) ([1]; A549 lung epithelial cells, MTS, FIG. 2): no worse than pexiganan

Structure (SMILES): CCC[C@H](C)N(CC(=O)N(CC(N)=O)[C@@H](C)c1ccccc1)C(=O)CN(CCCCN)C(=O)CN(C(=O)CN(C(=O)CN(CCCCN)C(=O)CN(C(=O)CN(C(=O)CN(CCCCN)C(=O)CN(C(=O)CN(C(=O)CNCCCCN)[C@@H](C)CCC)[C@@H](C)c1ccccc1)[C@@H](C)CCC)[C@@H](C)c1ccccc1)[C@@H](C)CCC)[C@@H](C)c1ccccc1 [2-Nsap2,5,8,11, H-(Nlys-Nsap-Nspe)4-NH2] (H-[Nlys][X2][Nspe][Nlys][X2][Nspe][Nlys][X2][Nspe][Nlys][X2][Nspe]-NH2)
Selectivity ratio (SR) [2]: >16

E. coli MIC [4]: 6.3 µM
ID50 [6]: 15 µM
Structure (SMILES): C[C@@H](c1ccccc1)N(CC(N)=O)C(=O)CN(Cc1ccccc1)C(=O)CN(CCCCN)C(=O)CN(Cc1ccccc1)C(=O)CN(Cc1ccccc1)C(=O)CN(CCCCN)C(=O)CN(Cc1ccccc1)C(=O)CN(Cc1ccccc1)C(=O)CN(CCCCN)C(=O)CN(Cc1ccccc1)C(=O)CN(Cc1ccccc1)C(=O)CNCCCCN [1achiral-Nspe12, H-(Nlys-Npm-Npm)3-(Nlys-Npm-Nspe)-NH2]
HD50 [3]: > 200 µM
CC50 at 3 h [5]: 15 µM

Structure (SMILES): C[C@@H](c1ccccc1)N(CC(N)=O)C(=O)CN(C(=O)CN(CCCCN)C(=O)CN(C(=O)CN(C(=O)CN(CCCCN)C(=O)CN(C(=O)CN(C(=O)CN(CCCCN)C(=O)[C@@H]1CCCN1C(=O)CN(C(=O)CNCCCCN)[C@@H](C)c1ccccc1)[C@@H](C)c1ccccc1)[C@@H](C)c1ccccc1)[C@@H](C)c1ccccc1)[C@@H](C)c1ccccc1)[C@@H](C)c1ccccc1 [1-Pro3, H-Nlys-Nspe-L-Pro-(Nlys-Nspe-Nspe)3-NH2] (H-[Nlys][Nspe]P[Nlys][Nspe][Nspe][Nlys][Nspe][Nspe][Nlys][Nspe][Nspe]-NH2)
HD10 [3]: 74 µM
E. coli MIC [4]: 12.5 µM
CC50 at 3 h [5]: 12 µM
ID50 [6]: 12 µM

E. coli MIC [4]: 6.3 µM
ID50 [6]: 11 µM
Structure (SMILES): C[C@@H](c1ccccc1)N(CC(=O)N(CC(=O)N(CCCCN)CC(=O)N(CC(=O)N(CC(=O)N(CCCCN)CC(=O)N(CC(=O)N(CC(=O)N(CCCCN)CC(=O)N(CC(=O)N(CC(N)=O)Cc1ccccc1)Cc1ccccc1)Cc1ccccc1)Cc1ccccc1)Cc1ccccc1)Cc1ccccc1)Cc1ccccc1)C(=O)CNCCCCN [1ach-Nspe2, H-(Nlys-Nspe-Npm)-(Nlys-Npm-Npm)3-NH2] (H-[Nlys][Nspe][Nphe][Nlys][Nphe][Nphe][Nlys][Nphe][Nphe][Nlys][Nphe][Nphe]-NH2)
CC50 at 3 h [5]: 11 µM

Structure (SMILES): C[C@@H](c1ccccc1)N(CC(N)=O)C(=O)CN(Cc1ccccc1)C(=O)CN(CCCCN)C(=O)CN(C(=O)CN(Cc1ccccc1)C(=O)CN(CCCCN)C(=O)CN(C(=O)CN(Cc1ccccc1)C(=O)CN(CCCCN)C(=O)CN(C(=O)CN(Cc1ccccc1)C(=O)CNCCCCN)[C@@H](C)c1ccccc1)[C@@H](C)c1ccccc1)[C@@H](C)c1ccccc1 [1-Npm2,5,8,11, H-(Nlys-Npm-Nspe)4-NH2] (H-[Nlys][Nphe][Nspe][Nlys][Nphe][Nspe][Nlys][Nphe][Nspe][Nlys][Nphe][Nspe]-NH2)
MIC [7]: 64 mg/L (≈ 36.3 µM)
MIC [8]: 8 mg/L (≈ 4.54 µM)
MIC [9]: 8 mg/L (≈ 4.54 µM)
MIC [10]: 8 mg/L (≈ 4.54 µM)
MIC [11]: 8 mg/L (≈ 4.54 µM)
MIC [12]: 16 mg/L (≈ 9.07 µM)
MIC [13]: 64 mg/L (≈ 36.3 µM)
MIC [14]: 64 mg/L (≈ 36.3 µM)
MIC [15]: 4 mg/L (≈ 2.27 µM)
MIC [16]: 8 mg/L (≈ 4.54 µM)
MIC [17]: 16 mg/L (≈ 9.07 µM)
MIC [18]: 8 mg/L (≈ 4.54 µM)
MIC [19]: 64 mg/L (≈ 36.3 µM)
MIC [20]: 16 mg/L (≈ 9.07 µM)
E. coli MIC [4]: 6.3 µM
CC50 at 3 h [5]: 6.8 µM
ID50 [6]: 6.8 µM

MIC for B. subtilis ATCC 6633 [21]: 1.6 µM
E. coli MIC [4]: 12.5 µM
MIC for E. coli ATCC 35218 [4]: 12.5 µM
ID10 relative to that of pexiganan [1]: 10 times
Structure (SMILES): C[C@@H](c1ccccc1)N(CC(N)=O)C(=O)CN(C(=O)CN(CCCCN)C(=O)CN(C(=O)CN(C(=O)CN(CCCCN)C(=O)[C@@H]1CCCN1C(=O)CN(C(=O)CN(CCCCN)C(=O)CN(C(=O)CN(C(=O)CNCCCCN)[C@@H](C)c1ccccc1)[C@@H](C)c1ccccc1)[C@@H](C)c1ccccc1)[C@@H](C)c1ccccc1)[C@@H](C)c1ccccc1)[C@@H](C)c1ccccc1 [1-Pro6, H-Nlys-Nspe-Nspe-Nlys-Nspe-L-Pro-(Nlys-Nspe-Nspe)2-NH2] (H-[Nlys][Nspe][Nspe][Nlys][Nspe]P[Nlys][Nspe][Nspe][Nlys][Nspe][Nspe]-NH2)
HD10 [3]: 83 µM
HD50 [3]: > 200 µM
CC50 at 3 h [5]: 18 µM
